Measured values taken from article PMC11242382, “Rapid Screening of Chemical Components in Salvia miltiorrhiza with the Potential to Inhibit Skin Inflammation” (International Journal of Molecular Sciences, 2024).

Legend:
Format in all cases: biochemical
HAase [1] = target: T1, HAase (Bos taurus, UniProt Q2YDK3); assay: Combined effects of SAB and RA on HAase (median-effect equation, combination index); details: for Fa (%): SAB-only group
T1 sequence (Q2YDK3 36-553): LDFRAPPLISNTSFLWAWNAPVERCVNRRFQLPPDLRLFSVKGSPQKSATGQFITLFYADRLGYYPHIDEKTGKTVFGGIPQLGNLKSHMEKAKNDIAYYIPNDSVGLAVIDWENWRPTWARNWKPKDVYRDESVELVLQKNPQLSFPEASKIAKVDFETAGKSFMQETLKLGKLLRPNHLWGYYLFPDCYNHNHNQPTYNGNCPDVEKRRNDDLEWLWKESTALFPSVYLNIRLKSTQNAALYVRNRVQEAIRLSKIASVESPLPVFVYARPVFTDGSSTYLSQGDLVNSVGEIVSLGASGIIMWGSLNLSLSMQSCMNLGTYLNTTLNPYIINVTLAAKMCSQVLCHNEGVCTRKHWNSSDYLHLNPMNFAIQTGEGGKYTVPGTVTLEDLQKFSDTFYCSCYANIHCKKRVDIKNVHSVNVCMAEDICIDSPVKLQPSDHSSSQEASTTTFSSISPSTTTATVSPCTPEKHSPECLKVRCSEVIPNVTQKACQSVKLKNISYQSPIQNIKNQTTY
Method: (§1) The inhibition assay of the ligands against HAase was performed, following the Elson–Morgan modified method, and the working concentration of the sample was determined to be 0.5 mg/mL [35, 36, 37]. The assays took place in 10 mL centrifuge tubes. Firstly, 0.5 mL of sample solution and 0.5 mL of HAase were added (500 U/mL) to the tube in a 37 °C water bath for 20 min. Then, 0.1 mL of CaCl2 (2.5 mol/L) solution was added to the tube in a 37 °C water bath for 20 min. Next, 0.5 mL of sodium hyaluronate solution (0.5 mg/mL) was added to the tube at 37 °C in a water bath for 40 min. Afterward, we added 0.5 mL of distilled water, 0.1 mL of NaOH solution, and 0.5 mL of acetylacetone (composed of 50 mL of Na2CO3 (1 M) and 3.5 mL of acetylacetone) to the tube. This mixture was kept in the 37 °C water bath for 15 min and then transferred to an ice bath for 10 min, followed by 10 min at room temperature. Afterward, 1 mL of P-DAB and 4.3 mL of ethanol were added to it. The absorbance was measured at 530 nm after allowing the solution to stand for 30 min. The HAase inhibition rate (R) was calculated using the following formula:(1) R=A0−A/A0×100% where A0 is the absorbance of the control group (without the sample, enzyme solution, and sodium hyaluronate as the drug control), and A is the absorbance of the sample group (with the sample, no enzyme solution, and sodium hyaluronate as the blank control); ascorbic acid was the positive control.
The Fa value for each group is Fa (%) = R* (where R* denotes the mean value of inhibition in the administered group). Neutralization graphs (y = log Fa/Fu, x = logD, and y = ax + b) and the neutralization of the two components in monotherapy and combination were calculated based on the neutralization equation Fa/Fu = (D/Dm)^m. In this equation, Fa is the drug effect, Fu = 1 − Fa, D is the drug concentration, Dm is the neutralization concentration, that is, the concentration of the drug when it exerts 50% of its effect, and m is the slope of the equation of the neutralization curve. Dose was calculated using (logDm = −b/a, a = m) and the corresponding parameters of the equation (slope m and correlation coefficient r, etc.). Then, the CI value of the combined effect was calculated according to the following formula:(2) CI=D1/Dx1+D2/Dx2 where D1 and D2 are the concentrations of each of the two drugs causing the x effect when combined, and Dx1 and Dx2 are the concentrations of each of the two drugs causing the x effect when used alone. […] The quantitative effect-relationship curves of the two drugs individually and after combination were plotted using GraphPad Prism V5.0, with the drug concentration as the horizontal coordinate and the Fa value as the vertical coordinate. The data of the combined action group were simulated using Compusyn V1.0 and the neutral effect equation. The Fa-CI curves were plotted using GraphPad Prism V5.0, with the simulated Fa on the horizontal axis and its corresponding CI value on the vertical axis. This comprehensive analysis aimed to thoroughly evaluate the effects of the 2 drugs following their combined action, based on the provided data.

HAase [2] = target: T1, HAase; assay: Enzyme kinetics study (Lineweaver–Burk plots); details: for type of HAase inhibition: Lineweaver–Burk plots; for Kis: from Y-intercept of double inverse curve vs inhibitor concentration
Method: We conducted enzyme kinetic studies to explore the inhibitory patterns of the ligands of HAase, employing a method that was previously documented. Based on the earlier HAase inhibition assay, 5 different concentrations of ligands (0, 1/2 × IC50, 1 × IC50, 3/2 × IC50, and 2 × IC50) were reacted with 5 different concentrations of sodium hyaluronate (500, 750, 1000, 1250, and 1500 µM). The reaction rate was monitored within the initial 30 min post-initiation. Grouping the samples by concentration, we derived the corresponding regression equations to construct the Lineweaver–Burk diagram, with the reciprocal of the average reaction rate (1/V) on the ordinate and the reciprocal of the substrate concentration (1/[S]) on the abscissa. From this diagram, we extracted the reciprocal of the transverse intercept (Km) and longitudinal intercept (Vmax) to compute the values of the constants Ki and Kis.

HAase [3] = target: T1, HAase; assay: HAase inhibition assay (Elson–Morgan modified method)
Method: as §1, with “The HAase inhibition rate (R) was calculated using the following formula:(1) R=A0−A/A0×100% where A0 is the absorbance of the control group (without the sample, enzyme solution, and sodium hyaluronate as the drug control), and A is the absorbance of the sample group (with the sample, no enzyme solution, and sodium hyaluronate as the blank control); ascorbic acid was the positive control.” left out

Row | Molecule | m (slope of the neutralization curve equation) (HAase [1]; median-effect equation) | type of HAase inhibition (HAase [2]) | Kis (HAase [2]) [µM] | Fa (%) (HAase [1]; 0.006 mg/mL) | Fa (%) (HAase [1]; 0.03 mg/mL) | Fa (%) (HAase [1]; 0.06 mg/mL) | Fa (%) (HAase [1]; 0.15 mg/mL) | Fa (%) (HAase [1]; 0.3 mg/mL) | Dm (median effective concentration) (HAase [1]; median-effect equation, concentration at 50% of effect) [mg/mL] | IC50 against HAase (HAase [3]) [µg/mL] | Inhibition Rate (%) against HAase (HAase [3]; sample concentration 0.5 mg/mL, mean ± SD (n = 3)) [%]
1 | O=C(/C=C/c1ccc(O)c(O)c1)O[C@H](Cc1ccc(O)c(O)c1)C(=O)O [RA, rosmarinic acid] | 0.6904 | mixed-type inhibitors | 4.60 |  |  |  |  |  |  |  | 
2 | salvianolic acid B [SAB] | 0.6928 | mixed-type inhibitors | 0.96 | 8.30 | 18.07 | 22.16 | 40.98 | 59.08 | 0.2424 | 204.15 ± 1.08 | 68.27 ± 0.71
